# Assay results: patent US3985738A, “7-(D-. alpha.-Hydroxy-2-arylacetamido)-3-(tetrazolo-[4,5-b]pyridazin-6-ylthiomet hyl)-3-cephem-4-carboxylic acids” (Bristol-Myers Company, priority 1974, dated 1976)
# Experiments:
# Assay in all cases: In vitro antibacterial activity, tube dilution method (Nutrient Broth)
# Type in all cases: cell-based
# Dip. pneumoniae = conditions: Streptococcus pneumoniae
# From the text: (§1) In vitro Antibacterial Activity of BB-S266 by Tube Dilution Method (Nutrient Broth).
# E. coli ATCC 8739 = conditions: Escherichia coli, ATCC8739
# From the text: as §1
# E. coli Juhl A15119 = conditions: Escherichia coli, JUHLA15119
# From the text: as §1
# E. coli NIHJ = conditions: Escherichia coli
# From the text: as §1
# Kl. pneumoniae A15130 = conditions: Klebsiella pneumoniae
# From the text: as §1
# Kl. pneumoniae A9977 = conditions: Klebsiella pneumoniae
# From the text: as §1
# Mycobacterium 607 = test system: Mycobacterium 607
# From the text: as §1
# Pr. mirabilis A9900 = conditions: Proteus mirabilis
# From the text: as §1
# Pr. morganii A15153 = conditions: Morganella morganii
# From the text: as §1
# Ps. aeruginosa A9843 = conditions: Pseudomonas aeruginosa
# From the text: as §1
# S. aureus BX-1633 = conditions: Staphylococcus aureus, BX1633
# From the text: as §1
# S. aureus Russel = conditions: Staphylococcus aureus
# From the text: as §1
# S. aureus Smith = conditions: Staphylococcus aureus
# From the text: as §1
# Sal. enteritidis A9531 = conditions: Salmonella enterica
# From the text: as §1
# Ser. marcescens A20019 = conditions: Serratia marcescens
# From the text: as §1
# St. pyogenes A9604 = conditions: Streptococcus pyogenes
# From the text: as §1
structure (smiles),measurement,setting,value
"O=C(O)C1=C(CSc2ccc3nnnn3n2)CS[C@@H]2C(NC(=O)[C@H](O)c3ccccc3)C(=O)N12 (stereo partly drawn) [BB-S266, 7-(D-α-HYDROXY-α-PHENYLACETAMIDO)-3-(TETRAZOLO[4,5-B]PYRIDAZIN-6-YLTHIOMETHYL)-3-CEPHEM-4-CARBOXYLIC ACID]",MIC,Dip. pneumoniae,0.01 µg/mL
same,MIC,E. coli ATCC 8739,1.6 µg/mL
same,MIC,E. coli Juhl A15119,3.1 µg/mL
same,MIC,E. coli NIHJ,0.08 µg/mL
same,MIC,Kl. pneumoniae A15130,3.1 µg/mL
same,MIC,Kl. pneumoniae A9977,3.1 µg/mL
same,MIC,Mycobacterium 607,< 100 µg/mL
same,MIC,Pr. mirabilis A9900,6.3 µg/mL
same,MIC,Pr. morganii A15153,50 µg/mL
same,MIC,Ps. aeruginosa A9843,< 100 µg/mL
same,MIC,S. aureus BX-1633,0.8 µg/mL
same,MIC,S. aureus Russel,0.4 µg/mL
same,MIC,S. aureus Smith; S. aureus Smith,0.1 µg/mL
same,MIC,S. aureus Smith; S. aureus Smith + 50% serum,0.2 µg/mL
same,MIC,Sal. enteritidis A9531,0.4 µg/mL
same,MIC,Ser. marcescens A20019,100 µg/mL
same,MIC,St. pyogenes A9604,0.01 µg/mL
